The values that follow come from patent US20060276464A1, “Diarylsulfone sulfonamides and use thereof” (Wyeth, priority 2005, published 2006).

In assay [1] the target is T1, SFRP-1 (Homo sapiens, UniProt Q8N474).
T1 sequence (Q8N474 32-314): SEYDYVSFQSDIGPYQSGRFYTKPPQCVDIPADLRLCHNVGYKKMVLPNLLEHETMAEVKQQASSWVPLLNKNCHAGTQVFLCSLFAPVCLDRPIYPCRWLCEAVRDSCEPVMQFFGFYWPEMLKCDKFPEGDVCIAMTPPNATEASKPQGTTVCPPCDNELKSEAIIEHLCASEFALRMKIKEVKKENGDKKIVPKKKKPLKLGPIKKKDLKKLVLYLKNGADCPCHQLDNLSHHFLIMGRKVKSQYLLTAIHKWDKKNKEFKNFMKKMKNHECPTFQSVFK
Description: Fluorescence polarization binding assay (competitive displacement of a probe compound from SFRP-1).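 Further: test compound competes with a fluorescent probe held by SFRP-1, seen as a drop in probe anisotropy after incubation in darkness, with anisotropy as function of rising compound dose.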 The following applies: fluorescence anisotropy, 45 nM SFRP-1, 20 nM probe.

The target in assay [2] is T1, SFRP-1. Description: Cell-based assay for in vitro measurement of SFRP-1/SARP2 antagonist activity (U2OS cells co-transfected with 16x TCF-tk-Luciferase reporter, Wnt and hSFRP-1).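 Further: U2OS cells co-transfected with a TCF-tk luciferase reporter, a Wnt vector, hSFRP-1 or empty vector and CMV-βgal, luciferase luminescence read in cell lysates alongside βgal activity.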 The following applies: U2OS. (In a reporter assay the amount or activity of a reporter protein is the signal.)
Setting [3] is: read-out: Fold Induction with SFRP-1, Conc 15 μM, with SFRP-1, fold induction over SFRP-1 control, single dose.
Setting [4] is: read-out: Fold Induction without SFRP-1, Conc 15 μM, without SFRP-1, single dose.

Values joined by “and” are separate entries in the source; they are usually repeats but may differ in a detail not shown here. Equal values may be shown once. Read-outs that look alike come from different tables or passages of the source.

In general, IC50 refers to the concentration at which inhibition is half-maximal. A higher IC50 goes with weaker potency in that assay. `CC(C)c1ccc(S(=O)(=O)c2ccc(F)cc2)cc1S(=O)(=O)NC1CCOCC1` [Example 321, 5-[(4-fluorophenyl)sulfonyl]-2-isopropyl-N-tetrahydro-2H-pyran-4-ylbenzenesulfonamide]: at SFRP-1 [1], the IC50 was found to be 1000 nM. The figures for the fold induction at 15 µM on SFRP-1 [2] (setting [3]) and on SFRP-1 [2] (setting [4]) were 3.3 and 1.2, respectively.

In turn, `CC(C)c1ccc(S(=O)(=O)c2ccc(F)cc2)cc1S(=O)(=O)NCCC1CCOCC1` [Example 322, 5-[(4-fluorophenyl)sulfonyl]-2-isopropyl-N-(2-tetrahydro-2H-pyran-4-ylethyl)benzenesulfonamide] yielded a half-inhibitory concentration (IC50) at SFRP-1 [1] of 600 nM. Also, the results for the fold induction at 15 µM at SFRP-1 [2] (setting [3]) and on SFRP-1 [2] (setting [4]) were 2.5 and 1.1, respectively.

Regarding `Cc1cc(C)c(S(=O)(=O)c2ccccc2)cc1S(=O)(=O)NCCn1ccnc1` [Example 324, N-[2-(1H-imidazol-1-yl)ethyl]-2,4-dimethyl-5-(phenylsulfonyl)benzenesulfonamide], the IC50 on SFRP-1 [1] came to 900 nM. For the same compound, the fold induction at 15 µM on SFRP-1 [2] (setting [3]) was found to be 3.2; on SFRP-1 [2] (setting [4]), 0.9.

As to `Cc1cc(C)c(S(=O)(=O)c2ccccc2)cc1S(=O)(=O)NCCC1CCOCC1` [Example 328, 2,4-dimethyl-5-(phenylsulfonyl)-N-(2-tetrahydro-2H-pyran-4-ylethyl)benzenesulfonamide], the IC50 on SFRP-1 [1] was determined as 3000 nM. Moreover, the fold induction at 15 µM came out at 2.6 at SFRP-1 [2] (setting [3]) and 1.1 at SFRP-1 [2] (setting [4]).

As to `Cc1cc(C)c(S(=O)(=O)c2ccc(F)cc2)cc1S(=O)(=O)NCCn1ccnc1` [Example 329, 5-[(4-fluorophenyl)sulfonyl]-N-[2-(1H-imidazol-1-yl)ethyl]-2,4-dimethylbenzenesulfonamide], at SFRP-1 [1], the IC50 was found to be 1000 nM. The results for the fold induction at 15 µM at SFRP-1 [2] (setting [3]) and at SFRP-1 [2] (setting [4]) were 2.9 and 0.9, respectively.

Turning to `Cc1ccc(S(=O)(=O)c2cc(Cl)cc(Cl)c2)cc1S(=O)(=O)NCCCn1ccnc1` [Example 344, 5-[(3,5-dichlorophenyl)sulfonyl]-N-[3-(1H-imidazol-1-yl)propyl]-2-methylbenzenesulfonamide], the IC50 on SFRP-1 [1] was 1400 nM. The results for the fold induction at 15 µM on SFRP-1 [2] (setting [3]) and on SFRP-1 [2] (setting [4]) were 2.2 and 1, respectively.

Compound `Cc1ccc(S(=O)(=O)c2ccc(NCCC#N)cc2)cc1S(=O)(=O)NCCCn1ccnc1` [Example 353, 5-({4-[(2-cyanoethyl)amino]phenyl}sulfonyl)-N-[3-(1H-imidazol-1-yl)propyl]-2-methylbenzenesulfonamide] had an IC50 at SFRP-1 [1] of 300 nM. Further, the figures for the fold induction at 15 µM at SFRP-1 [2] (setting [3]) and on SFRP-1 [2] (setting [4]) were 3.3 and 1.1, respectively.

The compound `CC[C@H](C)[C@@H](CO)Nc1ccc(S(=O)(=O)c2ccc(C)c(S(=O)(=O)NCCCn3ccnc3)c2)cc1` [Example 354, 5-[(4-{[(1S,2S)-1-(hydroxymethyl)-2-methylbutyl]amino}phenyl)sulfonyl]-N-[3-(1H-imidazol-1-yl)propyl]-2-methylbenzenesulfonamide] yielded an IC50 on SFRP-1 [1] of 1400 nM. Also, the values for the fold induction at 15 µM at SFRP-1 [2] (setting [3]) and on SFRP-1 [2] (setting [4]) were 2.6 and 1, respectively.

As for `CNc1ccc(S(=O)(=O)c2ccc(C)c(S(=O)(=O)NCCc3ccccn3)c2)cc1` [Example 356, 2-methyl-5-{[4-(methylamino)phenyl]sulfonyl)-N-(2-pyridin-2-ylethyl)benzenesulfonamide], on SFRP-1 [1], the half-inhibitory concentration (IC50) came to 1700 nM. Also, the fold induction at 15 µM turned out to be 2.5 on SFRP-1 [2] (setting [3]) and 1 at SFRP-1 [2] (setting [4]).

In turn, `CNc1ccc(S(=O)(=O)c2ccc(C(C)C)c(S(=O)(=O)NCCc3ccccn3)c2)cc1` [Example 357, 2-isopropyl-5-{[4-(methylamino)phenyl]sulfonyl}-N-(2-pyridin-2-ylethyl)benzenesulfonamide] registered an IC50 at SFRP-1 [1] of 300 nM. For the same compound, the fold induction at 15 µM was determined as 4.2 on SFRP-1 [2] (setting [3]) and 1.1 at SFRP-1 [2] (setting [4]).

The compound `CNc1ccc(S(=O)(=O)c2ccc(C(C)C)c(S(=O)(=O)NC3CCOCC3)c2)cc1` [Example 358, 2-isopropyl-5-{[4-(methylamino)phenyl]sulfonyl}-N-(tetrahydro-2H-pyran-4-yl)benzenesulfonamide] gave a half-maximal inhibitory concentration (IC50) on SFRP-1 [1] of 600 nM. In addition, the fold induction at 15 µM on SFRP-1 [2] (setting [3]) came out at 2.9; on SFRP-1 [2] (setting [4]) it was 1.

Regarding `CNc1ccc(S(=O)(=O)c2ccc(C(C)C)c(S(=O)(=O)NCCC3CCOCC3)c2)cc1` [Example 359, 2-isopropyl-5-{[4-(methylamino)phenyl]sulfonyl}-N-[2-(tetrahydro-2H-pyran-4-yl)ethyl]benzenesulfonamide], the half-inhibitory concentration (IC50) at SFRP-1 [1] was 800 nM. The figures for the fold induction at 15 µM on SFRP-1 [2] (setting [3]) and on SFRP-1 [2] (setting [4]) were 2.7 and 0.9, respectively.

`Cc1ccc(S(=O)(=O)c2cccc(Cl)c2Cl)cc1S(=O)(=O)NCCCn1ccnc1` [Example 360, 5-[(2,3-dichlorophenyl)sulfonyl]-N-[3-(1H-imidazol-1-yl)propyl]-2-methylbenzenesulfonamide] came in with an IC50 on SFRP-1 [1] of 2000 nM. Further, the values for the fold induction at 15 µM at SFRP-1 [2] (setting [3]) and at SFRP-1 [2] (setting [4]) were 1.9 and 0.9, respectively.

For `Cc1ccc(S(=O)(=O)c2ccc(NCC3CC3)cc2)cc1S(=O)(=O)NCCCn1ccnc1` [Example 368, 5-({4-[(cyclopropylmethyl)amino]phenyl}sulfonyl)-N-[3-(1H-imidazol-1-yl)propyl]-2-methylbenzenesulfonamide], on SFRP-1 [1], the concentration for half-maximal inhibition (IC50) came out at 900 nM. Also, the fold induction at 15 µM on SFRP-1 [2] (setting [3]) turned out to be 2.5; on SFRP-1 [2] (setting [4]), 1.

In the case of `Cc1ccc(S(=O)(=O)c2ccc(NCc3ccccc3)cc2)cc1S(=O)(=O)NCCCn1ccnc1` [Example 370, 5-{[4-(benzylamino)phenyl]sulfonyl}-N-[3-(1H-imidazol-1-yl)propyl]-2-methylbenzenesulfonamide], the 50% inhibitory concentration (IC50) at SFRP-1 [1] stood at 500 nM. Also, the fold induction at 15 µM at SFRP-1 [2] (setting [3]) stood at 1.8; on SFRP-1 [2] (setting [4]) it was 0.8.

At SFRP-1 [1], `Cc1ccc(S(=O)(=O)c2ccc(N[C@@H](C)C3CCCCC3)cc2)cc1S(=O)(=O)NCCCn1ccnc1` [Example 371, 5-[(4-{[(1S)-1-cyclohexylethyl]amino}phenyl)sulfonyl]-N-[3-(1H-imidazol-1-yl)propyl]-2-methylbenzenesulfonamide] returned an IC50 of 7000 nM. Further, the fold induction at 15 µM turned out to be 1.4 on SFRP-1 [2] (setting [3]) and 0.8 at SFRP-1 [2] (setting [4]).

`Cc1ccc(S(=O)(=O)c2ccc(N[C@H](C)C3CCCCC3)cc2)cc1S(=O)(=O)NCCCn1ccnc1` [Example 372, 5-[(4-{[(1R)-1-cyclohexylethyl]amino}phenyl)sulfonyl]-N-[3-(1H-imidazol-1-yl)propyl]-2-methylbenzenesulfonamide]: the 50% inhibitory concentration (IC50) on SFRP-1 [1] was 2000 nM and 2100 nM. Moreover, the values for the fold induction at 15 µM on SFRP-1 [2] (setting [3]) and at SFRP-1 [2] (setting [4]) were 2.2 and 0.9, respectively.

`CCC(O)CNc1ccc(S(=O)(=O)c2ccc(C)c(S(=O)(=O)NCCCn3ccnc3)c2)cc1` (stereo not drawn) [Example 373, 5-({4-[(2-hydroxybutyl)amino]phenyl}sulfonyl)-N-[3-(1H-imidazol-1-yl)propyl]-2-methylbenzenesulfonamide]: on SFRP-1 [1], the IC50 came out at 1100 nM. For the same compound, the fold induction at 15 µM came out at 2.8 at SFRP-1 [2] (setting [3]) and 1 at SFRP-1 [2] (setting [4]).

For `Cc1ccc(S(=O)(=O)c2ccc(Br)cc2)cc1S(=O)(=O)NCCc1ccccn1` [Example 381, 5-[(4-bromophenyl)sulfonyl]-2-methyl-N-(2-pyridin-2-ylethyl)benzenesulfonamide], the IC50 at SFRP-1 [1] stood at 4000 nM. The figures for the fold induction at 15 µM on SFRP-1 [2] (setting [3]) and at SFRP-1 [2] (setting [4]) were 2.1 and 0.8, respectively.

Take `CCc1ccc(S(=O)(=O)c2ccc(F)cc2)cc1S(=O)(=O)NC(C)C(O)c1ccccc1` (stereo not drawn) [Example 392, 2-ethyl-5-[(4-fluorophenyl)sulfonyl]-N-[(trans)-2-hydroxy-1-methyl-2-phenylethyl]benzenesulfonamide]: at SFRP-1 [1], the IC50 was 4000 nM. For the same compound, the fold induction at 15 µM at SFRP-1 [2] (setting [3]) stood at 2.8; at SFRP-1 [2] (setting [4]), 1.

Consider `Cc1ccc(S(=O)(=O)c2ccccc2)cc1S(=O)(=O)NC1CCC1` [Example 398, N-cyclobutyl-2-methyl-5-(phenylsulfonyl)benzenesulfonamide], for which, on SFRP-1 [1], the IC50 worked out at 9000 nM. The fold induction at 15 µM on SFRP-1 [2] (setting [3]) worked out at 2.6; at SFRP-1 [2] (setting [4]), 1.2.

The compound `Cc1ccc(S(=O)(=O)c2ccccc2)cc1S(=O)(=O)NC1CCCC1` [Example 399, N-cyclopentyl-2-methyl-5-(phenylsulfonyl)benzenesulfonamide] showed an IC50 at SFRP-1 [1] of 3000 nM. The fold induction at 15 µM worked out at 2.5 on SFRP-1 [2] (setting [3]) and 1.1 at SFRP-1 [2] (setting [4]).

In the case of `C/C(=N\O)c1ccc(S(=O)(=O)c2ccc(C)c(S(=O)(=O)NC3CCOCC3)c2)cc1` [Example 402, 5-({4-[(1E)-N-hydroxyethanimidoyl]phenyl}sulfonyl)-2-methyl-N-(tetrahydro-2H-pyran-4-yl)benzenesulfonamide], at SFRP-1 [1], the concentration for half-maximal inhibition (IC50) is 2600 nM. The results for the fold induction at 15 µM at SFRP-1 [2] (setting [3]) and on SFRP-1 [2] (setting [4]) were 2.5 and 1.1, respectively.

Turning to `Cc1ccc(S(=O)(=O)c2ccccc2)cc1S(=O)(=O)NC1CCN(Cc2ccccc2)CC1` [Example 413, N-(1-benzylpiperidin-4-yl)-2-methyl-5-(phenylsulfonyl)benzenesulfonamide], the IC50 on SFRP-1 [1] was found to be 5000 nM. In addition, the fold induction at 15 µM at SFRP-1 [2] (setting [3]) was 2.2; on SFRP-1 [2] (setting [4]), 1.4.

On to `CCc1ccc(S(=O)(=O)c2ccc(C)c(S(=O)(=O)NCCc3ccccn3)c2)cc1` [Example 418, 5-[(4-ethylphenyl)sulfonyl]-2-methyl-N-(2-pyridin-2-ylethyl)benzenesulfonamide], for which, on SFRP-1 [1], the IC50 came out at 1300 nM. Besides, the fold induction at 15 µM was determined as 2.3 at SFRP-1 [2] (setting [3]) and 1.2 on SFRP-1 [2] (setting [4]).
